In US20060063784A1, “Method of using substituted pyrazolo [1,5-a] pyrimidines” (priority 2004, published 2006):
pIC50: −log10 of the molar value. Where two headings read alike, the source gives them in different places.

How the values were obtained:
[1] = test system: 80S14 (p21-deficient) cells; test: Cytotoxicity assay using isogenic cell lines: IC50 in 80S14 (p21-deficient) cells, SRB; assay type: cell-based, human; conditions: for pIC50: SRB
Summary of the method: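 80S14 (p21-deficient) cells seeded at 12,000 cells/well overnight, then exposed 5 days at 37 °C to serial dilutions (5 pM–50 μM or 170 pg/ml–10 μg/ml). TCA-fixed, sulforhodamine B-stained, absorbance at 560 nm; IC50 taken from cytotoxicity curves versus untreated controls.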

[2] = test system: LoVo Colon cell line; test: Cytotoxicity assay using LoVo colon cell line, SRB; assay type: cell-based; conditions: read-out: Inhibition of LoVo
Summary of the method: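 LoVo cells (4000/well, RPMI 1640 with 10% FBS, 37 °C, 7% CO2) seeded overnight, then exposed 4 days to serial dilutions spanning 5 pM-20 μM or 170 pg/ml-10 μg/ml. Survival by SRB staining; IC50 from curves relative to untreated controls.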

[3] = Homo sapiens, 120 h, 80S14 p21-deficient cells, 5 days incubation, read-out: IC50 for 80SI4
[4] = Homo sapiens, 96 h, LoVo colon cells, 4 days incubation, SRB
[5] = Homo sapiens, 120 h, 80S14 (p21-deficient) cells, 5 days, class symbols, read-out: IC50 for 80S14
[6] = Homo sapiens, 96 h, Cellular activity in LoVo cell, 4 days incubation, SRB

SMILES	pIC50 [1, 3]	pIC50 [2, 4]	pIC50 [1, 5]	pIC50 [2, 6]	other results
CC(C)CC(=O)Nc1cccc(-c2ccnc3c(C(=O)c4ccsc4)cnn23)c1 [Example 297, 3-Methyl-N-{3-[3-(3-thienylcarbonyl)pyrazolo[1,5-a]pyrimidin-7-yl]phenyl}butanamide]					IC50 ([1]; Homo sapiens, 80S14, 120 h, read-out: IC50 for 80S14 (uM)): < 1 µM; pIC50 ([2]; Homo sapiens, LoVo, 96 h): > 7.00
O=C(Nc1cccc(-c2ccnc3c(C(=O)c4cccs4)cnn23)c1)OCCCCCl [Example 26, 4-chlorobutyl 3-[3-(thien-2-ylcarbonyl)pyrazolo[1,5-a]pyrimidin-7-yl]phenylcarbamate]	> 6.00	> 7.00			
CC(C)CC(=O)Nc1cccc(-c2ccnc3c(-c4cccc(Cl)c4Cl)cnn23)c1 [Example 473, N-{3-[3-(2,3-Dichlorophenyl)pyrazolo[1,5-a]pyrimidin-7-yl]phenyl}-3-methylbutanamide]			5.00 to 6.00	6.00 to 7.00	
O=C(c1cccs1)c1cnn2c(-c3cccc(NCC4CCCCC4)c3)ccnc12 [Example 379, (7-{3-[(Cyclohexylmethyl)amino]phenyl)pyrazolo[1,5-a]pyrimidin-3-yl)(thien-2-yl)methanone]			> 6.00	> 7.00	
O=C(Nc1cccc(-c2ccnc3c(C(=O)c4cccs4)cnn23)c1)c1cn[nH]c1 [Example 441, N-{3-[3-(Thien-2-ylcarbonyl)pyrazolo[1,5-a]pyrimidin-7-yl]phenyl}-1H-pyrazole-4-carboxamide]			4.30 to 5.00	4.70 to 6.00	
CC(C)(C)CC(=O)Nc1cc(-c2ccnc3c(C(=O)c4cccs4)cnn23)ccc1F [Example 355, N-{2-Fluoro-5-[3-(thien-2-ylcarbonyl)pyrazolo[1,5-a]pyrimidin-7-yl]phenyl}-3,3-dimethylbutanamide]			> 6.00	> 7.00	
Cc1cnc2c(C(=O)c3cccs3)cnn2c1-c1cccc(NC(=O)OC(C)C)c1 [Example 211, isopropyl 3-[6-methyl-3-(thien-2-ylcarbonyl)pyrazolo[1,5-a]pyrimidin-7-yl]phenylcarbamate]	4.30 to 5.00	5.70 to 6.00			
O=C(Nc1cccc(-c2ccnc3c(C(=O)c4cccs4)cnn23)c1)c1c(Cl)cccc1Cl [Example 384, 2,6-Dichloro-N-{3-[3-(thien-2-ylcarbonyl)pyrazolo[1,5-a]pyrimidin-7-yl]phenyl}benzamide]			5.00 to 6.00	6.00 to 7.00	
CCCCn1nnc(-c2cccc(-c3ccnc4c(C(=O)c5cccs5)cnn34)c2)n1 [Example 506, {7-[3-(2-Butyl-2H-tetraazol-5-yl)phenyl]pyrazolo[1,5-a]pyrimidin-3-yl) (thien-2-yl)methanone]			> 6.00	> 7.00	
O=C(Nc1cccc(-c2ccnc3c(C(=O)c4cccs4)cnn23)c1)NC1CCCCC1 [Example 3, N-cyclohexyl-N′-{3-[3-(thien-2-ylcarbonyl)pyrazolo[1,5-a]pyrimidin-7-yl]phenyl}urea]	> 6.00	> 7.00			
CC(C)OC(=O)Nc1ccc(-c2ccnc3c(C(=O)c4cccs4)cnn23)s1 [Example 344, Isopropyl 5-[3-(thien-2-ylcarbonyl)pyrazolo[1,5-a]pyrimidin-7-yl]thien-2-ylcarbamate]			5.00 to 6.00	4.70 to 6.00	
CC(C)CC(=O)Nc1cccc(-c2ccnc3c(-c4cccc(CN5CCOCC5)c4)cnn23)c1 [Example 488, 3-Methyl-N-(3-{3-[3-(morpholin-4-ylmethyl)phenyl]pyrazolo[1,5-a]pyrimidin-7-yl}phenyl)butanamide]			4.30 to 5.00	4.70 to 6.00	
Cc1cc(C)cc(-c2cnn3c(-c4cccc(-c5nnn(CCN6CCOCC6)n5)c4)ccnc23)c1 [Example 493, 3-(3,5-Dimethylphenyl)-7-{3-[2-(2-morpholin-4-ylethyl)72H-tetraazol-5-yl]phenyl}pyrazolo[1,5-a]pyrimidine]					pIC50 ([1]; 80S14 (p21-deficient) cells, 5 days, class symbols, read-out: IC50 for 80S14): 5.00 to 6.00; pIC50 ([2]; Cellular activity in LoVo cell, 4 days incubation, SRB): 6.00 to 7.00
O=C(c1cccs1)c1cnn2c(-c3cccc(NC/C=C/c4ccc([N+](=O)[O-])cc4)c3)ccnc12 [Example 398, [7-(3-{[(2E)-3-(4-Nitrophenyl)prop-2-enyl]amino}phenyl)pyrazolo[1,5-a]pyrimidin-3-yl] (thien-2-yl)methanone]			4.30 to 5.00	4.70 to 6.00	
COc1ccc(/C=C/CNc2cccc(-c3ccnc4c(C(=O)c5cccs5)cnn34)c2)cc1 [Example 396, [7-(3-{[(2E)-3-(4-Methoxyphenyl)prop-2-enyl]amino}phenyl)pyrazolo[1,5-a]pyrimidin-3-yl](thien-2-yl)methanone]			4.30 to 5.00	4.70 to 6.00	
CC12CCC(C(=O)Nc3cccc(-c4ccnc5c(C(=O)c6cccs6)cnn45)c3)(OC1=O)C2(C)C (centres unmarked) [Example 54, 4,7,7-trimethyl-3-oxo-N-{3-[3-(thien-2-ylcarbonyl)pyrazolo[1,5-a]pyrimidin-7-yl]phenyl}-2-oxabicyclo[2.2.1]heptane-1-carboxamide]	> 6.00	> 7.00			

SMILES	pIC50 [1, 3]	pIC50 [2, 4]	pIC50 [1, 5]	pIC50 [2, 6]	other results
O=C(Nc1ccc(-c2ccnc3c(C(=O)c4cccs4)cnn23)s1)c1ccccc1 [Example 361, N-{5-[3-(Thien-2-ylcarbonyl)pyrazolo[1,5-a]pyrimidin-7-yl]thien-2-yl}benzamide]			4.30 to 5.00	4.70 to 6.00	
CCC(C)NC(=O)Nc1cccc(-c2ccnc3c(C(=O)c4cccs4)cnn23)c1 (centres unmarked) [Example 158, N-(sec-butyl)-N′-{3-[3-(thien-2-ylcarbonyl)pyrazolo[1,5-a]pyrimidin-7-yl]phenyl}urea]	> 6.00	> 7.00			
Cc1cc(-c2cccc(NC(=O)OCC(C)(C)C)c2)n2ncc(C(=O)c3cccs3)c2n1 [Example 200, neopentyl 3-[5-methyl-3-(thien-2-ylcarbonyl)pyrazolo[1,5-a]pyrimidin-7-yl]phenylcarbamate]	> 6.00	6.00 to 7.00			
O=C(c1cccs1)c1cnn2c(-c3cccc(-c4nnnn4CC4CCC4)c3)ccnc12 [Example 508, (7-{3-[1-(Cyclobutylmethyl)-1H-tetraazol-5-yl]phenyl}pyrazolo[1,5-a]pyrimidin-3-yl)(thien-2-yl)methanone]			4.30 to 5.00	4.70 to 6.00	
O=C(c1cccs1)c1cnn2c(-c3cccc(-c4nnn[nH]4)c3)ccnc12 [Example 501, {7-[3-(1H-Tetraazol-5-yl)phenyl]pyrazolo[1,5-a]pyrimidin-3-yl}(thien-2-yl)methanone]			4.30 to 5.00	4.70 to 6.00	
COc1ccccc1C(=O)Nc1cccc(-c2ccnc3c(C(=O)c4cccs4)cnn23)c1 [Example 93, 2-methoxy-N-{3-[3-(thien-2-ylcarbonyl)pyrazolo[1,5-a]pyrimidin-7-yl]phenyl}benzamide]	> 6.00	> 7.00			
CC(=O)c1cccc(-c2cnn3c(-c4cccc(NC(=O)CC(C)C)c4)ccnc23)c1 [Example 483, N-{3-[3-(3-Acetylphenyl)pyrazolo[1,5-a]pyrimidin-7-yl]phenyl}-3-methylbutanamide]			4.30 to 5.00	4.70 to 6.00	
CCN(CC)C(=O)Nc1cccc(-c2ccnc3c(C(=O)c4cccs4)cnn23)c1 [Example 159, N,N-diethyl-N′-{3-[3-(thien-2-ylcarbonyl)pyrazolo[1,5-a]pyrimidin-7-yl]phenyl}urea]	5.00 to 6.00	6.00 to 7.00			
O=C(O)c1ccccc1C(=O)Nc1cccc(-c2ccnc3c(C(=O)c4cccs4)cnn23)c1 [Example 443, 2-[({3-[3-(Thien-2-ylcarbonyl)pyrazolo[1,5-a]pyrimidin-7-yl]phenyl}amino)carbonyl]benzoic acid]			4.30 to 5.00	4.70 to 6.00	
CCCCN(C)C(=O)Nc1cccc(-c2ccnc3c(C(=O)c4cccs4)cnn23)c1 [Example 156, N-butyl-N-methyl-N′-{3-[3-(thien-2-ylcarbonyl)pyrazolo[1,5-a]primidin-7-yl]phenyl}urea]					pIC50 ([1]; 80S14 p21-deficient cells, 5 days incubation, read-out: IC50 for 80SI4): > 6.00; pIC50 ([2]; LoVo colon cells, 4 days incubation, SRB): 6.00 to 7.00
Cc1cnc2c(C(=O)c3cccs3)cnn2c1-c1cccc(NC(=O)OCC(C)(C)C)c1 [Example 214, neopentyl 3-[6-methyl-3-(thien-2-ylcarbonyl)pyrazolo[1,5-a]pyrimidin-7-yl]phenylcarbamate]	4.30 to 5.00	5.70 to 6.00			
O=C(c1cccs1)c1cnn2c(-c3cccc(-c4nnn(Cc5ccncc5)n4)c3)ccnc12 [Example 510, (7-{3-[2-(Pyridin-4-ylmethyl)-2H-tetraazol-5-yl]phenyl}pyrazolo[1,5-a]pyrimidin-3-yl)(thien-2-yl)methanone]			> 6.00	> 7.00	
CCCOC(=O)Nc1cccc(-c2cc(C)nc3c(C(=O)c4cccs4)cnn23)c1 [Example 194, propyl 3-[5-methyl-3-(thien-2-ylcarbonyl)pyrazolo[1,5-a]pyrimidin-7-yl]phenylcarbamate]	> 6.00	> 7.00			
O=C(Nc1cccc(-c2ccnc3c(C(=O)c4cccs4)cnn23)c1)c1cccs1 [Example 51, N-{3-[3-(thien-2-ylcarbonyl)pyrazolo[1,5-a]pyrimidin-7-yl]phenyl}thiophene-2-carboxamide]	> 6.00	> 7.00			
CC(C)CC(=O)Nc1ccc(-c2ccnc3c(C(=O)c4cccs4)cnn23)s1 [Example 343, 3-Methyl-N-{5-[3-(thien-2-ylcarbonyl)pyrazolo[1,5-a]pyrimidin-7-yl]thien-2-yl}butanamide]			5.00 to 6.00	4.70 to 6.00	
